According to patent US20100317625A1, “NOVEL SULFONAMIDOMETHYLP[…] BETA-LACTAMASE” (priority 2006, published 2010):
In brackets after ≈: the same amount, converted by molar mass.

Key:
[1] = test system: CL 5701 (Pseudomonas aeruginosa; Pa AmpC); experiment: microbe, parasite or virus in culture; conditions: read-out: Imipenem MIC
Description: (§1) The assay determines the concentration of a β-lactamase inhibitor required to reduce the MIC of a β-lactam antibiotic by one-half, one-quarter, one-eighth, one-sixteenth and one-thirty-second against strains of bacteria normally resistant to the antibiotic in question. This is accomplished by titrating the inhibitor (BLI=beta-lactamase inhibitor) in a serial dilution across a microtiter plate while at the same time titrating the antibiotic (AB) in a serial dilution down the microtiter plate and then inoculating the plate with the bacterial strain in question and allowing the bacteria to grow up overnight. Each well in this microplate checkerboard contains a different combination of concentrations of the inhibitor and the antibiotic allowing a full determination of any synergy between the two.
(§2) 100 μL is serially diluted from row A to row G of each MIC 2000 plate. […] 100 μL is removed from each well in row G of each MIC 2000 plate. […] 100 μL is serially diluted from column 1 to column 11 of each MIC 2000 plate. […] Plates are left at 37° C. for about 20 hours and scored for growth by eye. […]
(§3) Plates are scored for growth in each well. End points (MICs) where there is no growth in each row are determined and the concentrations of AB and the test BLI at each of these growth negative wells are then used to determine levels of synergy.

[2] = test system: CL 6188 (Acinetobacter baumanii; Oxa40); experiment: microbe, parasite or virus in culture; conditions: Acinetobacter baumannii, read-out: Imipenem MIC
Description: as §1, §2, §3

With `C[C@@H](O)[C@H]1C(=O)N2C(C(=O)O)=C(SCCN=CN)C[C@H]12` [Imipenem] the MIC [1] was 20 µg/mL (≈ 66.8 µM) and the MIC [2] was 128 µg/mL (≈ 428 µM).
